Experimental data taken from patent US20210198256A1, “COMPOUNDS FOR THE DEGRADATION OF BRD9 OR MTH1” (C4 Therapeutics, Inc., priority 2018, published 2021).

system: SMARTCAR-MTH1-wt-HiBiT (Jurkat.7 cells); assay: HiBit Lytic Assay (HiBit DC50, MTH1 degraders of Table 2); assay type: cell-based, human; conditions: Jurkat.7 SMARTCAR-MTH1-wt-HiBiT cells, compound treatment time 4 hr, 11-point half log dose response
Method: Example 3. HiBit Lytic Assay
• Compound is made at 10 mM, half log dilution, 11 points. • MDR plates can also be ordered from Frontier with same format. • 1. Barcode a 384LDV plate (384-well Low Dead Volume Microplate, Labcyte LP-0200) (Echo compatible) on the left side. • 2. Transfer 13.6 μL of 10 mM compound into column 1 of LDV plate (Labcyte). • 3. Fill column 2-11 and column 23 of MDR plate with 9.30 μL of DMSO. • 4. Serial dilute 3.16 fold from column 1 to 2 by transferring 4.30 μL from column 1 to column 2, and so on to column 11. *Change tip in every dilution to prevent compound carryover effect! • 5. Seal the plate with Plate Sealer, then store the MDR plate at room temperature for short term storage and in −20° C. for long term storage.
• Cells are treated with 30 nL of each compound at 10 mM, half log dilution, 11 points with final concentration of 1000 nM or 833 nM, half log dilution, 11 points, in duplicates. Final DMSO concentration is 0.1%. • 1. Barcode the plates made on the left side and label the plates with silver marker. • 2. Dispense with the following scheme: • a. 30 nL of compound into corresponding wells in cell plates via Echo550 with “MDR32_HiBiT16_30 nL”. Top concentration will be 1000 nM. • 3. Seal the plate with Plate Sealer.
• Cells are dispensed at density specified in Cell Line Table in 384-well microplate. • 1. Culture cells to between 50-80% of confluence in sterile culture flasks of appropriate size. • 2. For Adherent Cell Lines: • a. Aspirate off growth media in culture flask, and wash off the Phenol Red media with 5 mL of 1×PBS. • b. Add 5 mL of Trypsin to the cells, incubate at 37° C. for 5 minutes. • c. Add 5 mL of growth media to the trypsinzed cells, and resuspend. • 3. Remove 10 μL of cells, and resuspend the cells with 10 μL of Trypan Blue. Insert the solution to counting chamber slide, and count the cells via cell counter. • 4. Adjust the cell concentration to specified plating density, and strain the cells with cell strainer. • 5. Dispense the cells via E1-ClipTip™ Electronic Multichannel Pipettes or Multidrop™ Combi Reagent Dispenser with Standard tube dispensing cassette: • a. Prime the cassette with 10-20 mL of ddH2O. • b. Prime the cassette with 10-20 mL of cells. • c. Dispense the cells at low speed for 30 μL/well in Corning® 384 Well Low Flange Black Flat Bottom Polystyrene TC-Treated Microplate. • d. Wash the cassette with 10-20 mL of ddH2O, follow by 10-20 mL of 70% EtOH, then again with 10-20 mL of ddH2O. • 6. Incubate the plates at 37° C.×compound treatment time.
• 1. If not already, bring Nano-Glo® HiBiT Lytic Buffer to room temperature. • 2. Determine the amount of reagent needed. A volume of reagent equal to the volume of media in the well should be added (i.e. 30 μL of cells will need 30 μL of HiBiT Lytic reagent). • 3. Into a given volume of buffer, dilute the substrate 50-fold and the LgBiT protein 100-fold. For example, to make 10 ml of reagent, add the following: • 10 ml Nano-Glo® HiBiT Lytic Buffer • 200 μl Nano-Glo® HiBiT Lytic Substrate • 100 μl LgBiT Protein • The reagent should be reconstituted immediately before use. However, once reconstituted, it should take about 4 hours for the activity to decrease 10%. • 4. Cool down the cell plate to room temperature for 10-15 minutes without lid. • 5. Dispense the HiBiT Lytic Reagent via E1-ClipTip™ Electronic Multichannel Pipettes or Multidrop™ Combi Reagent Dispenser with Standard tube dispensing cassette: • a. Prime the cassette with 10-20 mL of ddH2O. • b. Prime the cassette with 10-20 mL of CTG 2.0. • c. Dispense the HiBiT Lytic Reagent at medium speed for 30 μL/well in cell plate to column 1-23 (column 24 will be used as plate background). • d. Wash the cassette with 10-20 mL of ddH2O, follow by 10-20 mL of 70% EtOH, then again with 10-20 mL of ddH2O. • 6. Incubate the cell plate at room temperature for 10 minutes without lid. • 7. […]

DC50, < 100 nM:
CNC(=O)c1cnc2ccc(-c3ccc(C(=O)NCCCCNC(=O)C(C)Nc4cccc5c4C(=O)N(C4CCC(=O)NC4=O)C5=O)cc3)cc2c1Nc1ccccc1 (stereo not drawn) [Compound 346, 4-anilino-6-[4-[4-[2-[[2-(2,6-dioxo-3-piperidyl)-1,3-dioxo-isoindolin-4-yl]amino]propanoylamino]butylcarbamoyl]phenyl]-N-methyl-quinoline-3-carboxamide]
CNC(=O)c1cnc2ccc(N3CCC(C(=O)NCCCCNC(=O)COc4cccc5c4C(=O)N(C4CCC(=O)NC4=O)C5=O)CC3)cc2c1Nc1ccccc1 (stereo not drawn) [Compound 347, 4-anilino-6-[4-[4-[[2-[2-(2,6-dioxo-3-piperidyl)-1,3-dioxo-isoindolin-4-yl]oxyacetyl]amino]butylcarbamoyl]-1-piperidyl]-N-methyl-quinoline-3-carboxamide]
CNC(=O)c1cnc2ccc(-c3ccc(C(=O)NCCCCNC(=O)COc4cccc5c4C(=O)N(C4CCC(=O)NC4=O)C5=O)c(F)c3)cc2c1Nc1ccccc1 (stereo not drawn) [Compound 351, 4-anilino-6-[4-[4-[[2-[2-(2,6-dioxo-3-piperidyl)-1,3-dioxo-isoindolin-4-yl]oxyacetyl]amino]butylcarbamoyl]-3-fluoro-phenyl]-N-methyl-quinoline-3-carboxamide]
CNC(=O)c1cnc2ccc(-c3ccc(C(=O)NCCCCNC(=O)CNc4cccc5c4C(=O)N(C4CCC(=O)NC4=O)C5=O)c(C)c3)cc2c1Nc1ccccc1 (stereo not drawn) [Compound 353, 4-anilino-6-[4-[4-[[2-[[2-(2,6-dioxo-3-piperidyl)-1,3-dioxo-isoindolin-4-yl]amino]acetyl]amino]butylcarbamoyl]-3-methyl-phenyl]-N-methyl-quinoline-3-carboxamide]
CNC(=O)c1cnc2ccc(-c3ccc(C(=O)NCCCCNC(=O)COc4cccc5c4C(=O)N(C4CCC(=O)NC4=O)C5=O)c(C)c3)cc2c1Nc1ccccc1 (stereo not drawn) [Compound 354, 4-anilino-6-[4-[4-[[2-[2-(2,6-dioxo-3-piperidyl)-1,3-dioxo-isoindolin-4-yl]oxyacetyl]amino]butylcarbamoyl]-3-methyl-phenyl]-N-methyl-quinoline-3-carboxamide]
CNC(=O)c1cnc2ccc(-c3ccc(C(=O)NCCCCn4cc(CNc5cccc6c5C(=O)N(C5CCC(=O)NC5=O)C6=O)nn4)cc3)cc2c1Nc1ccccc1 (stereo not drawn) [Compound 356, 4-anilino-6-[4-[4-[4-[[[2-(2,6-dioxo-3-piperidyl)-1,3-dioxo-isoindolin-4-yl]amino]methyl]triazol-1-yl]butylcarbamoyl]phenyl]-N-methyl-quinoline-3-carboxamide]
CNC(=O)c1cnc2ccc(-c3ccc(C(=O)NCCCCNC(=O)COc4cccc5c4C(=O)N(C4CCC(=O)NC4=O)C5=O)nc3)cc2c1Nc1ccccc1 (stereo not drawn) [Compound 357, 4-anilino-6-[6-[4-[[2-[2-(2,6-dioxo-3-piperidyl)-1,3-dioxo-isoindolin-4-yl]oxyacetyl]amino]butylcarbamoyl]-3-pyridyl]-N-methyl-quinoline-3-carboxamide]
CNC(=O)c1cnc2ccc(-c3ccc(C(=O)NCCCCNC(=O)CNc4cccc5c4C(=O)N(C4CCC(=O)NC4=O)C5=O)nc3)cc2c1Nc1ccccc1 (stereo not drawn) [Compound 358, 4-anilino-6-[6-[4-[[2-[[2-(2,6-dioxo-3-piperidyl)-1,3-dioxo-isoindolin-4-yl]amino]acetyl]amino]butylcarbamoyl]-3-pyridyl]-N-methyl-quinoline-3-carboxamide]
CNC(=O)c1cnc2ccc(-c3ccc(C(=O)NCCCCN4CCN(c5cccc6c5C(=O)N(C5CCC(=O)NC5=O)C6=O)CC4)cc3)cc2c1Nc1ccccc1 (stereo not drawn) [Compound 359, 4-anilino-6-[4-[4-[4-[2-(2,6-dioxo-3-piperidyl)-1,3-dioxo-isoindolin-4-yl]piperazin-1-yl]butylcarbamoyl]phenyl]-N-methyl-quinoline-3-carboxamide]
